Experimental data taken from patent publication US20240270821A1, “GIP/GLP1/GCG TRI-RECEPTOR AGONISTS AND USES THEREOF” (priority 2023, published 2024).
Like-named read-outs stand apart in the source and are kept apart here. Marks after values point to notes of the source that are not given here. Starred links: 1 amine or outer side, 2 acyl side, 3 side chain; linkers in the order of their positions; H or OH if unused. Non-standard residues stand in square brackets, D forms with d. Residues, ends and D or L forms follow the SMILES beside them. Groups on a side chain read outwards from the residue. *: point of attachment. C18 diacid = O=C(O)CCCCCCCCCCCCCCCCC(=O)*; αMePhe(2-F) = C[C@](N)(Cc1ccccc1F)C(=O)O; γGlu = O=C(O)[C@H](CCC(=O)[*:2])N[*:1]; αMe4Pal = C[C@](N)(Cc1ccncc1)C(=O)O; αMeY = C[C@](N)(Cc1ccc(O)cc1)C(=O)O; 4Pal = N[C@@H](Cc1ccncc1)C(=O)O; αMeL = CC(C)C[C@](C)(N)C(=O)O; αMeS = C[C@](N)(CO)C(=O)O; Orn = NCCC[C@H](N)C(=O)O; AEEA = NCCOCCOCC(=O)O; Aib = CC(C)(N)C(=O)O

Experiments:
hGIPR [1] = target: T1, hGIPR (Homo sapiens, UniProt P48546); assay: Functional cAMP activity in the presence of 1% HSA; format: cell-based; conditions: read-out: cAMP Rel EC50, hGIPR
T1 sequence (P48546 22-466): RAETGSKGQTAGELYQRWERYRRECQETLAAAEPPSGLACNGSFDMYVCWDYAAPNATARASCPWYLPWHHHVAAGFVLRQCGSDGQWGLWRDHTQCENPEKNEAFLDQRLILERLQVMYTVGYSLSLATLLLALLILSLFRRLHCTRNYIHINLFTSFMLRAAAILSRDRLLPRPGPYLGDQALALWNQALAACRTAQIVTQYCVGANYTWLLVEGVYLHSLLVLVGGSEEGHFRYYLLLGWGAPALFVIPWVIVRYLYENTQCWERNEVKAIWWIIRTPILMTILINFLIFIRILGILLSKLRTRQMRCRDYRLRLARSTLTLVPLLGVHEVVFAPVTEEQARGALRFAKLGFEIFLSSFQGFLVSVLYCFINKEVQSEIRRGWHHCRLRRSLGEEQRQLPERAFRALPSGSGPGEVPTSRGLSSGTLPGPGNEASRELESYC

hGLP-1R [2] = target: T2, hGLP-1R (Homo sapiens, UniProt P43220); assay: Functional cAMP activity in the presence of 1% HSA; format: cell-based; conditions: read-out: cAMP Rel EC50, hGLP-1R
human GcgR = human GcgR (Homo sapiens, UniProt P47871); assay: Functional cAMP activity in the presence of 1% HSA; format: cell-based; conditions: read-out: cAMP Rel EC50, hGcgR
hGIPR [3] = target: T1, hGIPR; assay: Functional cAMP activation in the presence of 0.1% casein (no HSA); format: cell-based; conditions: read-out: Relative cAMP EC50, hGIPR;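 on Relative cAMP EC50, hGIPR: intracellular cAMP rise after 30 min at 37 °C read by HTRF against a standard curve, scaled between buffer alone (0%) and top control ligand concentration (100%), four-parameter fit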;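 on Relative cAMP EC50, hGLP-1R: intracellular cAMP rise after 30 min at 37 °C read by HTRF, normalized between buffer only (0%) and maximal control ligand (100%), four-parameter variable-slope fit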;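 on Relative cAMP EC50, hGcgR: intracellular cAMP rise after 30 min at 37 °C, read by HTRF against a cAMP standard curve, scaled from buffer only (0%) to maximal control ligand response (100%)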
hGLP-1R [4] = target: T2, hGLP-1R; assay: as above; format: cell-based; conditions: read-out: Relative cAMP EC50, hGLP-1R
hGcgR = hGcgR (Homo sapiens, UniProt P47871); assay: as above; format: cell-based; conditions: read-out: Relative cAMP EC50, hGcgR;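 further: intracellular cAMP rise after 30 min at 37 °C, read by HTRF against a cAMP standard curve, scaled from buffer only (0%) to maximal control ligand response (100%)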
in vivo = assay: in vivo; set-up: species or system Sprague Dawley rats; conditions: male, Sprague Dawley, rat, 4 mg/kg
[5] = Body weight in diet-induced obese C57BL/6 mice; format: in vivo; conditions: 10 nmol/kg SC QD, percent of starting weight, DIO mice, mean ± SEM n=5
Procedure, shortened: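 Male C57BL/6 DIO mice (41-50 g, 5 per group, randomized by weight) on calorie-rich diet received subcutaneous doses 30-90 min before dark onset, QD or Q3D for 9-16 days. Body weight measured daily, expressed as percent of starting weight, mean±SEM.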

[6] = in the presence of 0.1% casein (no HSA), geometric mean

human GcgR, sequence (P47871 26-477): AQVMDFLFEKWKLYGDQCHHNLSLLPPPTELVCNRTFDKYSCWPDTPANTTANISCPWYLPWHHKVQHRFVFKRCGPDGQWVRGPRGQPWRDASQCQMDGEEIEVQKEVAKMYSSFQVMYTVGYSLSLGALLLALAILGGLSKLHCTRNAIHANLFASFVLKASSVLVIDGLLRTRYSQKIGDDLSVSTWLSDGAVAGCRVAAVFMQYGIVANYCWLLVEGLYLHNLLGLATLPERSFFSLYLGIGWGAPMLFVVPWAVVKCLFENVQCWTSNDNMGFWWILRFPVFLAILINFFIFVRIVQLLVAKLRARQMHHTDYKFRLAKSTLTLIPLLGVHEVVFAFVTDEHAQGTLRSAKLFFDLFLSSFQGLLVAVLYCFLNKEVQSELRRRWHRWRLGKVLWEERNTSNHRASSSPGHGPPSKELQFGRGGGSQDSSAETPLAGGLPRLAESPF
hGcgR, sequence (P47871 26-477): as above
T2 sequence (P43220 24-463): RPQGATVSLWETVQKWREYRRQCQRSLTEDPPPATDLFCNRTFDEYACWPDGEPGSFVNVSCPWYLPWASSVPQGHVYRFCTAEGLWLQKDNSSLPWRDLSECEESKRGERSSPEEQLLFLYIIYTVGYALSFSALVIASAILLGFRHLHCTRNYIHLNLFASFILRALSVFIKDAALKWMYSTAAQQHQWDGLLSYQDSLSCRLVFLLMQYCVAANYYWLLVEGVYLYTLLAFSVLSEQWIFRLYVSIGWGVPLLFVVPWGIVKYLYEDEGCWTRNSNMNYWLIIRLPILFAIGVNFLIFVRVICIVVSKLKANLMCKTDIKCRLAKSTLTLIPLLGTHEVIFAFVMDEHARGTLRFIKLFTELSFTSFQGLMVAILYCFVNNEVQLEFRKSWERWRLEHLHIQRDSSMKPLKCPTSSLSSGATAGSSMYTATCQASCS

EC50 (hGIPR [3]) [nM] | EC50 (hGLP-1R [4]) [nM] | EC50 (hGcgR) [nM] | Molecule | EC50 (hGIPR [1]) [nM] | EC50 (hGLP-1R [2]) [nM] | EC50 (human GcgR) [nM] | EC50 (hGIPR [3]; [6]) [nM] | EC50 (hGLP-1R [4]; [6]) [nM] | EC50 (hGcgR; [6]) [nM] | CL/F (in vivo) [L/h/kg] | half-life (in vivo) [h] | Body weight (%) ([5]; 14 days) | Body weight (%) ([5]; 9 days) | Body weight (%) ([5]; 15 days)
 |  |  | CC[C@H](C)[C@H](NC(=O)[C@H](Cc1ccccc1)NC(=O)[C@H](CCCN)NC(=O)C(C)(C)NC(=O)[C@H](CCC(N)=O)NC(=O)[C@H](C)NC(=O)[C@H](CCCCNC(=O)COCCOCCNC(=O)CC[C@H](NC(=O)CCCCCCCCCCCCCCCCC(=O)O)C(=O)O)NC(=O)[C@H](CCCN)NC(=O)[C@H](CC(=O)O)NC(=O)[C@H](CC(C)C)NC(=O)[C@](C)(CC(C)C)NC(=O)[C@@H](NC(=O)[C@](C)(CO)NC(=O)[C@H](Cc1ccncc1)NC(=O)[C@H](CC(=O)O)NC(=O)[C@H](CO)NC(=O)[C@@H](NC(=O)[C@](C)(Cc1ccccc1F)NC(=O)[C@@H](NC(=O)CNC(=O)[C@H](CCC(N)=O)NC(=O)C(C)(C)NC(=O)[C@@H](N)Cc1ccc(O)cc1)[C@@H](C)O)[C@@H](C)O)[C@@H](C)CC)C(=O)N[C@H](CCC(=O)O)C(=O)N[C@@](C)(Cc1ccc(O)cc1)C(=O)N[C@@H](CC(C)C)C(=O)N[C@@H](CC(C)C)C(=O)N[C@@H](CCC(=O)O)C(=O)NCC(=O)NCC(=O)N1CCC[C@H]1C(=O)N[C@@H](CO)C(=O)N[C@@H](CO)C(=O)NCC(=O)N[C@@H](CCC(=O)O)C(=O)N1CCC[C@H]1C(=O)N1CCC[C@H]1C(=O)N1CCC[C@H]1C(=O)N[C@@H](CO)C(N)=O [Example 369] (H-Y[Aib]QGT[αMePhe(2-F)]TSD[4Pal][αMeS]I[αMeL]LD[Orn]K([AEEA-γGlu-C18 diacid])AQ[Aib][Orn]FI[dE][αMeY]LLEGGPSSGEPPPS-NH2) | 4.58 | 26.8 | 111 | 0.0263 | 0.301 | 0.873 | 0.68 | 8.2 | 52.91 +/− 2.17**** % |  | 
0.0173 | 0.254 | 2.24 | H-Y[Aib]QGT[αMePhe(2-F)]TSD[4Pal]SI[αMeL]LD[Orn]K([AEEA-γGlu-C18 diacid])AQ[αMe4Pal][Orn]FI[dE][αMeY]LIEGGPSSGEPPPEEG-NH2 [Example 475] | 1.85 | 18.6 | 254 |  |  |  | 0.21 | 13.7 |  | 69.34 ± 2.99 | 
 |  |  | CC[C@H](C)[C@H](NC(=O)[C@H](Cc1ccccc1)NC(=O)[C@H](C)NC(=O)C(C)(C)NC(=O)[C@H](CCC(N)=O)NC(=O)[C@H](C)NC(=O)[C@H](CCCCNC(=O)COCCOCCNC(=O)CC[C@H](NC(=O)CCCCCCCCCCCCCCCCC(=O)O)C(=O)O)NC(=O)[C@H](CCCCN)NC(=O)[C@H](CC(=O)O)NC(=O)[C@H](CC(C)C)NC(=O)[C@H](CC(C)C)NC(=O)[C@@H](NC(=O)[C@H](CO)NC(=O)[C@H](Cc1ccc(O)cc1)NC(=O)[C@H](CC(=O)O)NC(=O)[C@H](CO)NC(=O)[C@@H](NC(=O)[C@](C)(Cc1ccccc1F)NC(=O)[C@@H](NC(=O)CNC(=O)[C@H](CCC(N)=O)NC(=O)C(C)(C)NC(=O)[C@@H](N)Cc1ccc(O)cc1)[C@@H](C)O)[C@@H](C)O)[C@@H](C)CC)C(=O)N[C@@H](CCC(=O)O)C(=O)N[C@@H](Cc1ccc(O)cc1)C(=O)N[C@@H](CC(C)C)C(=O)N[C@@H](CCC(=O)O)C(=O)N[C@@H](CCC(=O)O)C(=O)NCC(=O)NCC(=O)N1CCC[C@H]1C(=O)N[C@@H](CO)C(=O)N[C@@H](CO)C(=O)NCC(=O)N[C@@H](C)C(=O)N1CCC[C@H]1C(=O)N1CCC[C@H]1C(=O)N1CCC[C@H]1C(=O)N[C@@H](CO)C(N)=O [Example 387] (H-Y[Aib]QGT[αMePhe(2-F)]TSDYSILLDKK([AEEA-γGlu-C18 diacid])AQ[Aib]AFIEYLEEGGPSSGAPPPS-NH2) | 5.64 | 26.5 | 184 | 0.0276 | 0.255 | 2.14 | 0.84 | 9.2 |  |  | 
0.0183 | 0.213 | 1.99 | H-Y[Aib]QGT[αMePhe(2-F)]TSD[4Pal][αMeS]I[αMeL]LD[Orn]K([AEEA-γGlu-C18 diacid])AQ[Aib][Orn]FI[dE][αMeY]LIEGGPSSGEPPPSEG-NH2 [Example 401] | 1.71 | 12 | 111 |  |  |  | 0.98 | 6.6 |  |  | 71.54 ± 3.32
